Reference: ChEMBL document CHEMBL5365492 (J Med Chem, 2023)
Square brackets hold non-standard residues; d marks the D form. Peptide text beside a SMILES is read from it. NMeL = CN[C@@H](CC(C)C)C(=O)O; NMeV = CN[C@H](C(=O)O)C(C)C; Nva = CCC[C@H](N)C(=O)O; Sar = CNCC(=O)O

Legend:
[1] = Permeability of compound at 10 uM incubated for 18 hrs by PAMPA assay; format: ADME; settings: read-out: permeability
[2] = Permeability in human Caco-2 cells at 10 uM incubated for 2 hrs by LC-MS analysis; format: ADME, cell-based; settings: read-out: permeability
[3] = 1,9-decadiene-water partition coefficient, logD of compound at pH 7.4 at 10 uM incubated for 30 mins by LC-MS analysis; format: physicochemical

Structure (SMILES) | Papp at 18 h, 10 µM [1] | Papp at 2 h, 10 µM [2] | logD hydrocarbon water at 0.5 h, 10 µM [3]
CCC[C@@H]1NC(=O)[C@H]([C@@H](C)O)N(C)C(=O)[C@H](C(C)C)N(C)C(=O)CN(CC[N+](CC)(CC)CC)C(=O)[C@H](CC(C)C)N(C)C(=O)[C@@H](C)NC(=O)[C@H](C)NC(=O)[C@H](CC(C)C)N(C)C(=O)[C@H](C(C)C)NC(=O)[C@H](CC(C)C)N(C)C(=O)CN(C)C1=O.O=C([O-])C(F)(F)F | – | 0.35 ×10⁻⁶ cm/s | -2.44
CC(C)NCC(O)COc1cccc2ccccc12 (configuration not stated) [PROPRANOLOL] | – | 32 ×10⁻⁶ cm/s | –
NC(=O)N1c2ccccc2C=Cc2ccccc21 [CARBAMAZEPINE] | 9.5 ×10⁻⁶ cm/s | – | 0.13
CCC[C@@H]1NC(=O)[C@H]([C@@H](C)O)N(C)C(=O)[C@H](C(C)C)N(C)C(=O)CN(CCN(C(C)C)C(C)C)C(=O)[C@H](CC(C)C)N(C)C(=O)[C@@H](C)NC(=O)[C@H](C)NC(=O)[C@H](CC(C)C)N(C)C(=O)[C@H](C(C)C)NC(=O)[C@H](CC(C)C)N(C)C(=O)CN(C)C1=O.O=C(O)C(F)(F)F | – | 0.07 ×10⁻⁶ cm/s | 0.13
CCC[C@@H]1NC(=O)[C@H]([C@@H](C)O)N(C)C(=O)[C@H]([C@@H](C)CC)NC(=O)[C@H](CC(C)C)N(C)C(=O)[C@H](CC(C)C)N(C)C(=O)[C@@H](C)NC(=O)[C@H](C)NC(=O)[C@H](CC(C)C)N(C)C(=O)[C@H](C(C)C)NC(=O)[C@H](CC(C)C)N(C)C(=O)CN(C)C1=O | 7.5 ×10⁻⁶ cm/s | 2.2 ×10⁻⁶ cm/s | 2.58
CCC[C@@H]1NC(=O)[C@H]([C@@H](C)O)N(C)C(=O)[C@H](CC(C)C)NC(=O)[C@H](CC(C)C)N(C)C(=O)[C@H](CC(C)C)N(C)C(=O)[C@@H](C)NC(=O)[C@H](C)NC(=O)[C@H](CC(C)C)N(C)C(=O)[C@H](C(C)C)NC(=O)[C@H](CC(C)C)N(C)C(=O)CN(C)C1=O | 7.7 ×10⁻⁶ cm/s | 2.6 ×10⁻⁶ cm/s | 2.52
CCCC[C@@H]1NC(=O)[C@H](CC(C)C)N(C)C(=O)[C@H](CC(C)C)N(C)C(=O)[C@@H](C)NC(=O)[C@H](C)NC(=O)[C@H](CC(C)C)N(C)C(=O)[C@H](C(C)C)NC(=O)[C@H](CC(C)C)N(C)C(=O)CN(C)C(=O)[C@H](CCC)NC(=O)[C@H]([C@@H](C)O)N(C)C1=O | 5.2 ×10⁻⁶ cm/s | 3 ×10⁻⁶ cm/s | 2.59

More lines, now with the values ahead:

Papp at 18 h, 10 µM [1] | Papp at 2 h, 10 µM [2] | logD hydrocarbon water at 0.5 h, 10 µM [3] | Structure (SMILES)
0.3 ×10⁻⁶ cm/s | 0.3 ×10⁻⁶ cm/s | 1.45 | CCC[C@@H]1NC(=O)[C@H]([C@@H](C)O)N(C)C(=O)[C@H](C)NC(=O)[C@H](CC(C)C)N(C)C(=O)[C@H](CC(C)C)N(C)C(=O)[C@@H](C)NC(=O)[C@H](C)NC(=O)[C@H](CC(C)C)N(C)C(=O)[C@H](C(C)C)NC(=O)[C@H](CC(C)C)N(C)C(=O)CN(C)C1=O
0.8 ×10⁻⁶ cm/s | 8.7 ×10⁻⁶ cm/s | 3.12 | CCC[C@@H]1NC(=O)[C@H]([C@@H](C)O)N(C)C(=O)[C@H](C(C)C)NC(=O)[C@H](CC(C)C)N(C)C(=O)[C@H](CC(C)C)N(C)C(=O)[C@@H](C)NC(=O)[C@H](C)NC(=O)[C@H](CC(C)C)N(C)C(=O)[C@H](C(C)C)NC(=O)[C@H](CC(C)C)N(C)C(=O)CN(C)C1=O
– | – | 5.17 | C/C=C/C[C@@H](C)[C@@H](OC(C)=O)[C@H]1C(=O)N[C@@H](CC)C(=O)N(C)CC(=O)N(C)[C@@H](CC(C)C)C(=O)N[C@@H](C(C)C)C(=O)N(C)[C@@H](CC(C)C)C(=O)N[C@@H](C)C(=O)N[C@H](C)C(=O)N(C)[C@@H](CC(C)C)C(=O)N(C)[C@@H](CC(C)C)C(=O)N(C)[C@@H](C(C)C)C(=O)N1C
2 ×10⁻⁶ cm/s | 6.4 ×10⁻⁶ cm/s | 3.58 | CCC[C@@H]1NC(=O)[C@H](CC)N(C)C(=O)[C@H](C(C)C)N(C)C(=O)[C@H](CC(C)C)N(C)C(=O)[C@H](CC(C)C)N(C)C(=O)[C@@H](C)NC(=O)[C@H](C)NC(=O)[C@H](CC(C)C)N(C)C(=O)[C@H](C(C)C)NC(=O)[C@H](CC(C)C)N(C)C(=O)CN(C)C1=O
6.6 ×10⁻⁶ cm/s | 3 ×10⁻⁶ cm/s | 2.12 | CCC[C@@H]1NC(=O)[C@H]([C@@H](C)O)N(C)C(=O)[C@H](C(C)C)N(C)C(=O)[C@H](CC(C)C)N(C)C(=O)[C@H](CC(C)C)N(C)C(=O)[C@@H](C)NC(=O)[C@H](C)NC(=O)[C@H](CC(C)C)N(C)C(=O)[C@H](C(C)C)NC(=O)[C@H](CC(C)C)N(C)C(=O)CN(C)C1=O
0.6 ×10⁻⁶ cm/s | 4.1 ×10⁻⁶ cm/s | 4.93 | CCC[C@@H]1NC(=O)[C@H](CC(C)C)N(C)C(=O)[C@H](C(C)C)N(C)C(=O)[C@H](CC(C)C)N(C)C(=O)[C@H](CC(C)C)N(C)C(=O)[C@@H](C)NC(=O)[C@H](C)NC(=O)[C@H](CC(C)C)N(C)C(=O)[C@H](C(C)C)NC(=O)[C@H](CC(C)C)N(C)C(=O)CN(C)C1=O (cyclo(A[dA][NMeL][NMeL][NMeV][NMeL][Nva][Sar][NMeL]V[NMeL]))
9.2 ×10⁻⁶ cm/s | 18.6 ×10⁻⁶ cm/s | 3.35 | CCC[C@@H]1NC(=O)[C@H]([C@H](O)C(C)C)N(C)C(=O)[C@H](C(C)C)N(C)C(=O)[C@H](CC(C)C)N(C)C(=O)[C@H](CC(C)C)N(C)C(=O)[C@@H](C)NC(=O)[C@H](C)NC(=O)[C@H](CC(C)C)N(C)C(=O)[C@H](C(C)C)NC(=O)[C@H](CC(C)C)N(C)C(=O)CN(C)C1=O
– | 6.8 ×10⁻⁶ cm/s | 4.6 | CCC[C@@H]1NC(=O)[C@H]([C@H](O)C(C)C)N(C)C(=O)[C@H](C(C)C)NC(=O)[C@H](CC(C)C)N(C)C(=O)[C@H](CC(C)C)N(C)C(=O)[C@@H](C)NC(=O)[C@H](C)NC(=O)[C@H](CC(C)C)N(C)C(=O)[C@H](C(C)C)NC(=O)[C@H](CC(C)C)N(C)C(=O)CN(C)C1=O
